Data published in patent US20250098679A1, “HERBICIDAL PYRIDONE DERIVATIVES” (SYNGENTA CROP PROTECTION AG, priority 2021, published 2025).

What was measured:
Type in all cases: in vivo
Details in all cases: evaluated after 13 days
Zea mays (ZEAMX) [1] = assay: Pre-emergence Test, Zea mays (ZEAMX)
Zea mays (ZEAMX) [2] = assay: Post-emergence Test, Zea mays (ZEAMX); parameters: key to percentage damage caused to the plant, ZEAMX (five-point scale): 5=81-100%, 4=61-80%, 3=41-60%, 2=21-40%, 1=0-20% damage
Summary of the method: (§1)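 Tested at 1000 g/ha unless otherwise stated. Plants were held at 24/16 °C day/night with a 14 h light period. Percent damage was read at 13 days and reported in five bands.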

[3] = tested on: Echinochloa crus-galli (ECHCG); assay: Post-emergence Test, Echinochloa crus-galli (ECHCG); parameters: key to percentage damage caused to the plant, ECHCG (five-point scale): 5=81-100%, 4=61-80%, 3=41-60%, 2=21-40%, 1=0-20% damage
Summary of the method: as §1

[4] = tested on: Amaranthus retoflexus (AMARE); assay: Post-emergence Test, Amaranthus retoflexus (AMARE); parameters: key to percentage damage caused to the plant, AMARE (five-point scale): 5=81-100%, 4=61-80%, 3=41-60%, 2=21-40%, 1=0-20% damage
Summary of the method: as §1

[5] = tested on: Amaranthus palmeri (AMAPA); assay: Pre-emergence Test, Amaranthus palmeri (AMAPA)
[6] = tested on: Amaranthus retoflexus (AMARE); assay: Pre-emergence Test, Amaranthus retoflexus (AMARE)
[7] = tested on: Ipomoea hederacea (IPOHE); assay: Post-emergence Test, Ipomoea hederacea (IPOHE); parameters: key to percentage damage caused to the plant, IPOHE (five-point scale): 5=81-100%, 4=61-80%, 3=41-60%, 2=21-40%, 1=0-20% damage
Summary of the method: as §1

[8] = tested on: Amaranthus palmeri (AMAPA); assay: Post-emergence Test, Amaranthus palmeri (AMAPA); parameters: key: 5=81-100%, 4=61-80%, 3=41-60%, 2=21-40%, 1=0-20% damage
Summary of the method: as §1

[9] = tested on: Echinochloa crus-galli (ECHCG); assay: Pre-emergence Test, Echinochloa crus-galli (ECHCG)
[10] = tested on: Ipomoea hederacea (IPOHE); assay: Pre-emergence Test, Ipomoea hederacea (IPOHE)
Setaria faberi (SETFA) = assay: Post-emergence Test, Setaria faberi (SETFA); parameters: key to percentage damage caused to the plant, SETFA (five-point scale): 5=81-100%, 4=61-80%, 3=41-60%, 2=21-40%, 1=0-20% damage
Summary of the method: as §1

Row | SMILES | Pre-emergence Test ZEAMX, percentage damage caused to the plant (five-point scale) (Zea mays (ZEAMX) [1]; 250 g/Ha (*)) | percentage damage caused to the plant, ZEAMX (five-point scale) (Zea mays (ZEAMX) [2]; 250 g/Ha) | percentage damage caused to the plant, ECHCG (five-point scale) ([3]; 250 g/Ha) | percentage damage caused to the plant, AMARE (five-point scale) ([4]; 250 g/Ha) | Pre-emergence Test AMAPA, percentage damage caused to the plant (five-point scale) ([5]; 250 g/Ha (*)) | Pre-emergence Test AMARE, percentage damage caused to the plant (five-point scale) ([6]; 250 g/Ha (*)) | percentage damage caused to the plant, IPOHE (five-point scale) ([7]; 250 g/Ha) | percentage damage caused to the plant, AMAPA (five-point scale) ([8]; 250 g/Ha) | Pre-emergence Test ECHCG, percentage damage caused to the plant (five-point scale) ([9]; 250 g/Ha (*)) | Pre-emergence Test IPOHE, percentage damage caused to the plant (five-point scale) ([10]; 250 g/Ha (*)) | Pre-emergence Test ZEAMX, percentage damage caused to the plant (five-point scale) (Zea mays (ZEAMX) [1]; 1000 g/ha) | percentage damage caused to the plant, ZEAMX (five-point scale) (Zea mays (ZEAMX) [2]; 1000 g/ha) | percentage damage caused to the plant, AMARE (five-point scale) ([4]; 1000 g/ha) | Pre-emergence Test AMAPA, percentage damage caused to the plant (five-point scale) ([5]; 1000 g/ha) | Pre-emergence Test AMARE, percentage damage caused to the plant (five-point scale) ([6]; 1000 g/ha) | percentage damage caused to the plant, SETFA (five-point scale) (Setaria faberi (SETFA); 1000 g/ha) | percentage damage caused to the plant, IPOHE (five-point scale) ([7]; 1000 g/ha) | percentage damage caused to the plant, AMAPA (five-point scale) ([8]; 1000 g/ha) | Pre-emergence Test ECHCG, percentage damage caused to the plant (five-point scale) ([9]; 1000 g/ha) | Pre-emergence Test IPOHE, percentage damage caused to the plant (five-point scale) ([10]; 1000 g/ha) | also measured
1 | CCn1c(Cn2ncc(C(F)(F)F)n2)cc(=O)c(C(=O)O)c1-c1ccc(Cl)c(Cl)c1 [Compound 189, 2-(3,4-dichlorophenyl)-1-ethyl-4-oxo-6-[[4-(trifluoromethyl)triazol-2-yl]methyl]pyridine-3-carboxylic acid] | 4 (4=61-80%) | 4 (4=61-80%) | 4 (4=61-80%) | 4 (4=61-80%) | 2 (2=21-40%) | 2 (2=21-40%) | 4 (4=61-80%) | 5 (5=81-100%) | 5 (5=81-100%) | 3 (3=41-60%) | – | – | – | – | – | – | – | – | – | – | –
2 | CCn1c(Cn2ccc(-c3ccc(F)cc3)n2)cc(=O)c(C(=O)O)c1-c1ccc(Cl)c(Cl)c1 [Compound 193, 2-(3,4-dichlorophenyl)-1-ethyl-6-[[3-(4-fluorophenyl)pyrazol-1-yl]methyl]-4-oxo-pyridine-3-carboxylic acid] | – | 0 | 3 (3=41-60%) | 0 | – | – | 0 | 0 | – | – | 0 | 1 (1=0-20%) | 1 (1=0-20%) | 0 | 0 | 0 | 2 (2=21-40%) | 1 (1=0-20%) | 0 | 1 (1=0-20%) | –
3 | CCn1c(Cn2ccc(COC)n2)cc(=O)c(C(=O)O)c1-c1ccc(Cl)c(Cl)c1 [Compound 162, 2-(3,4-dichlorophenyl)-1-ethyl-6-[[3-(methoxymethyl)pyrazol-1-yl]methyl]-4-oxo-pyridine-3-carboxylic acid] | 1 (1=0-20%) | 1 (1=0-20%) | 3 (3=41-60%) | 1 (1=0-20%) | 0 | 1 (1=0-20%) | 2 (2=21-40%) | 1 (1=0-20%) | 3 (3=41-60%) | 1 (1=0-20%) | 4 (4=61-80%) | 3 (3=41-60%) | 2 (2=21-40%) | 1 (1=0-20%) | 3 (3=41-60%) | 5 (5=81-100%) | 4 (4=61-80%) | 2 (2=21-40%) | 5 (5=81-100%) | 4 (4=61-80%) | –
4 | CCn1c(Cn2ccc(Br)n2)cc(=O)c(C(=O)O)c1-c1ccc(Cl)c(Cl)c1 [Compound 177, 6-[(3-bromopyrazol-1-yl)methyl]-2-(3,4-dichlorophenyl)-1-ethyl-4-oxo-pyridine-3-carboxylic acid] | 0 | 1 (1=0-20%) | 3 (3=41-60%) | 1 (1=0-20%) | 1 (1=0-20%) | 0 | 4 (4=61-80%) | 2 (2=21-40%) | 4 (4=61-80%) | 1 (1=0-20%) | 0 | 1 (1=0-20%) | 3 (3=41-60%) | 1 (1=0-20%) | 1 (1=0-20%) | 4 (4=61-80%) | 3 (3=41-60%) | 2 (2=21-40%) | 5 (5=81-100%) | 2 (2=21-40%) | –
5 | CCOC(=O)c1c(-c2ccc(Cl)c(Cl)c2)n(CC)c(Cn2cnc(C#N)n2)cc1=O [Compound 54, ethyl 6-[(3-cyano-1,2,4-triazol-1-yl)methyl]-2-(3,4-dichlorophenyl)-1-ethyl-4-oxo-pyridine-3-carboxylate] | – | – | – | – | – | – | – | – | – | – | – | 1 (1=0-20%) | 1 (1=0-20%) | – | – | 1 (1=0-20%) | 0 | 1 (1=0-20%) | – | – | percentage damage caused to the plant, ECHCG (five-point scale) ([3]; 1000 g/ha): 1 (1=0-20%)
6 | CCOC(=O)c1c(-c2ccc(Cl)c(Cl)c2)n(CC)c(Cn2cnc([N+](=O)[O-])c2)cc1=O [Compound 51, ethyl 2-(3,4-dichlorophenyl)-1-ethyl-6-[(4-nitroimidazol-1-yl)methyl]-4-oxo-pyridine-3-carboxylate] | – | – | – | – | – | – | – | – | – | – | – | 0 | 0 | – | – | 1 (1=0-20%) | 1 (1=0-20%) | 1 (1=0-20%) | – | – | percentage damage caused to the plant, ECHCG (five-point scale) ([3]; 1000 g/ha): 1 (1=0-20%)
7 | CCOC(=O)c1c(-c2ccc(Cl)c(Cl)c2)n(CC)c(Cn2cnc(Cl)c2Cl)cc1=O [Compound 68, ethyl 6-[(4,5-dichloroimidazol-1-yl)methyl]-2-(3,4-dichlorophenyl)-1-ethyl-4-oxo-pyridine-3-carboxylate] | – | 1 (1=0-20%) | 0 | 1 (1=0-20%) | – | – | 1 (1=0-20%) | 1 (1=0-20%) | – | – | – | 0 | 1 (1=0-20%) | – | – | 1 (1=0-20%) | 1 (1=0-20%) | 1 (1=0-20%) | – | – | percentage damage caused to the plant, ECHCG (five-point scale) ([3]; 1000 g/ha): 1 (1=0-20%); percentage damage caused to the plant, SETFA (five-point scale) (Setaria faberi (SETFA); 250 g/Ha): 1 (1=0-20%)
8 | CCn1c(Cn2nc(C(C)(C)C)cc2C(F)(F)F)cc(=O)c(C(=O)O)c1-c1ccc(Cl)c(Cl)c1 [Compound 181, 6-[[3-tert-butyl-5-(trifluoromethyl)pyrazol-1-yl]methyl]-2-(3,4-dichlorophenyl)-1-ethyl-4-oxo-pyridine-3-carboxylic acid] | – | 0 | 1 (1=0-20%) | 0 | – | – | 0 | 0 | – | – | – | 0 | 1 (1=0-20%) | – | – | 0 | 1 (1=0-20%) | 1 (1=0-20%) | – | – | –
